target: T1, Human immunodeficiency virus type 1 protease (Human immunodeficiency virus 1, UniProt Q72874); assay: Inhibitory activity was evaluated against HIV-1 protease

IC50 [µM] | Compound
18 | O=C1N(Cc2ccc(CBr)cc2)C(Cc2ccccc2)P(=O)(O)C(Cc2ccccc2)N1Cc1ccc(CBr)cc1 (stereo not drawn)
21 | O=C1N(Cc2ccccc2)C(Cc2ccccc2)P(=O)(O)C(Cc2ccccc2)N1Cc1ccccc1 (stereo not drawn)
4.8 | O=C1N(Cc2ccc(CO)cc2)C(Cc2ccccc2)P(=O)(O)C(Cc2ccccc2)N1Cc1ccc(CO)cc1 (stereo not drawn)
> 100 | O=C1NC(Cc2ccccc2)P(=O)(O)C(Cc2ccccc2)N1 (stereo not drawn)
0.26 | O=C1N(Cc2ccc3ccccc3c2)C(Cc2ccccc2)P(=O)(O)C(Cc2ccccc2)N1Cc1ccc2ccccc2c1 (racemic)
0.7 | O=C1N(Cc2ccc(CBr)cc2)C(Cc2ccccc2)P(=O)(O)C(Cc2ccccc2)N1Cc1ccc(CBr)cc1 (racemic)
0.24 | O=C1N(Cc2ccc(CO)cc2)C(Cc2ccccc2)P(=O)(O)C(Cc2ccccc2)N1Cc1ccc(CO)cc1 (racemic)
> 100 | O=C1NC(Cc2ccccc2)P(=O)(O)C(Cc2ccccc2)N1 (racemic)

target: T1, Human immunodeficiency virus type 1 protease; assay: Inhibitory activity was evaluated against HIV-1 protease; Not Active

Compound | IC50
COP1(=O)C(Cc2ccccc2)N(Cc2ccccc2)C(=O)N(Cc2ccccc2)C1Cc1ccccc1 (stereo not drawn) | Not Active
COP1(=O)C(Cc2ccccc2)NC(=O)NC1Cc1ccccc1 (stereo not drawn) | Not Active
COP1(=O)C(Cc2ccccc2)N(Cc2ccc(CBr)cc2)C(=O)N(Cc2ccc(CBr)cc2)C1Cc1ccccc1 (stereo not drawn) | Not Active
COP1(=O)C(Cc2ccccc2)N(Cc2ccc3ccccc3c2)C(=O)N(Cc2ccc3ccccc3c2)C1Cc1ccccc1 (stereo not drawn) | Not Active
COP1(=O)C(Cc2ccccc2)N(Cc2ccc(CO)cc2)C(=O)N(Cc2ccc(CO)cc2)C1Cc1ccccc1 (stereo not drawn) | Not Active

Source: ChEMBL document CHEMBL1128012, “Non-peptide-based inhibitors of human immunodeficiency virus-1 protease” (Bioorg Med Chem Lett, 1994)
